Assay results taken from PubChem BioAssay (NCI).
Values joined by “and” are separate entries in the source; they are usually repeats but may differ in a detail not shown here. Equal values may be shown once.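 Five compound concentrations were applied to cells in 96-well plates for 48 hours; endpoints were derived by simple linear interpolation of the resulting dose-response curve. At the GI50, growth is halved. The concentration for full growth arrest is given as TGI.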

Experiments:
Test in all cases: NCI tumour cell line growth inhibition, 48 h
HOP-92 NSCLC = test system: HOP-92 NSCLC
MOLT-4 leukemia = test system: MOLT-4 leukemia
MCF7 breast = test system: MCF7 breast
LXFL 529 NSCLC = test system: LXFL 529 NSCLC
HL-60(TB) leukemia = test system: HL-60(TB) leukemia
KM20L2 colon = test system: KM20L2 colon
MDA-MB-435 = test system: MDA-MB-435
SK-MEL-5 melanoma = test system: SK-MEL-5 melanoma
SN12C renal = test system: SN12C renal
K-562 leukemia = test system: K-562 leukemia

| SMILES | TGI (HOP-92 NSCLC) | TGI (MOLT-4 leukemia) [µM] | TGI (MCF7 breast) [µM] | TGI (LXFL 529 NSCLC) [µM] | TGI (HL-60(TB) leukemia) [µM] | TGI (KM20L2 colon) [µM] | TGI (MDA-MB-435) | TGI (SK-MEL-5 melanoma) | TGI (SN12C renal) | TGI (K-562 leukemia) [µM] | GI50 (LXFL 529 NSCLC) | GI50 (SK-MEL-5 melanoma) | GI50 (SN12C renal) |
| --- | --- | --- | --- | --- | --- | --- | --- | --- | --- | --- | --- | --- | --- |
| CN(C)CCC(=O)N1C/C(=C\c2ccc(Cl)c(Cl)c2)C(=O)/C(=C/c2ccc(Cl)c(Cl)c2)C1 | 0.977 µM | 1.7 | 0.701 | 0.637 | 0.162 | 1.59 | 1.6 µM | 0.759 µM | 0.44 µM | 0.572 |  |  |  |
| Cc1ccc(C)c(NC(=O)CC2Sc3ccccc3NC2=O)c1 (stereo unspecified) | 16.9 µM and 42.5 µM | > 100 | > 100 | > 100 | > 100 | > 100 | 85 µM and > 100 µM | 43.2 µM and > 100 µM | 33.4 µM and > 88.1 µM | > 100 | 23 µM and 99 µM | 30.3 µM and 91.6 µM | 19.5 µM and 44.7 µM |
| CNC(=O)OCc1nc(SSC(C)(C)C)n(C)c1COC(=O)NC | 3.67 µM | 4.16 | 15.5 | 2.74 | 2.66 | 25.6 | 16 µM | 16.5 µM | 13.7 µM | 7.06 |  |  |  |
| NCCCNCCS | > 100 µM | > 100 | > 100 | > 100 | > 100 | > 100 | > 100 µM | > 100 µM | > 100 µM | > 100 |  |  |  |
| COc1ccc(C=O)cc1O[Si](C)(C)C(C)(C)C | > 100 µM | > 100 |  | > 100 | > 100 | > 100 |  | > 100 µM | > 100 µM | > 100 |  |  |  |
